Assay results as given in US10098888B2, “Substituted benzene compounds” (Epizyme, Inc., priority 2012, dated 2018).
Like-named read-outs stand apart in the source and are kept apart here.

Experiments:
CYP3A4/5 = assay: Time-Dependent Inactivation (TDI) assessment of CYP3A4/5; format: in vitro ADME, human; conditions: for inactivation of CYP3A4/5 (conclusion in words): using midazolam as probe
Karpas-422 xenograft = assay: Efficacy study in Karpas-422 xenograft model; format: in vivo; conditions: mice, p.o. BID, up to 28 days
Procedure: (§1) The animals were fed ad libitum water (reverse osmosis 1 ppm Cl) and NIH 31 Modified and Irradiated Lab Diet® consisting of 18.0% crude protein, 5.0% crude fat, and 5.0% crude fiber. The mice were housed on irradiated Enrich-o'cobs™ bedding in static microisolators on a 12-hour light cycle at 20-22° C. (68-72° F.) and 40-60% humidity. Alf procedures complied with the recommendations of the Guide for Care and Use of Laboratory Animals with respect to restraint, husbandry, surgical procedures, feed and fluid regulation, and veterinary care.
Human lymphoma cell lines line were obtained from different sources (ATCC, DSMZ), e.g., Karpas-422 obtained from DSMZ. […]
Human lymphoma cell lines, e.g., Karpas-422 cells, were harvested during mid-log phase growth, and re-suspended in […] base media and 50% Matrigel™ (BD Biosciences) (RPMI:Matrigel=1:1). […] Tumor size, in mm^3, was calculated from: […]
(§2) Mice were treated at compound doses ranging from 62.5-500 mg/kg on a BID (2 times a day every 12 h) schedule for various amounts of days by oral gavage. Each dose was delivered in a volume of 0.2 mL/20 g mouse (10 mL/kg), and adjusted for the last recorded weight of individual animals. […]
Treatment efficacy was determined on the last treatment day, MTV(n), the median tumor volume for the number of animals, n, evaluable on the last day, was determined for each group. […]

[1] = Tolerability in Karpas-422 xenograft tumor bearing mice (body weight); format: in vivo; conditions: Karpas-422 xenograft mice, p.o. BID, up to 28 days
Procedure: as §1
Test compounds were stored at room temperature and protected from light. On each treatment day, fresh compound formulations were prepared by suspending the powders in 0.5% sodium carboxymethylcellulose (NaCMC) and 0.1% Tween® 80 in deionized water. […]
as §2
In order to test whether a compound could induce an anti-tumor effect in vivo, Karpas-422 xenograft tumor bearing mice were treated with a compound at, e.g., 62.5, 125, 250, or 500 mg/kg BID for 28 days. […] The tumor growth over the treatment course of 28 days for vehicle and test compound treated groups was measured.

CYP1A = assay: CYP induction in cryopreserved human hepatocytes, CYP1A; conditions: 48 hours, positive control β-naphthoflavone
CYP2B6 = assay: CYP induction in cryopreserved human hepatocytes, CYP2B6; conditions: 1 μm, 48 hours, positive control phenobarbital
[2] = system: human cytochromes P450 (CYP); assay: Assessment of CYP inhibition, overall conclusion on reversible inhibition; conditions: human liver microsomes
WSU-DLCL2 cells = assay: Cell Proliferation Analysis (WSU-DLCL2, Cell Titer Glo); format: cell-based; conditions: Homo sapiens, WSUDLCL2, 6 days
[3] = pH 7.4, probe testosterone, time-dependent inactivation of CYP3A4/5, human liver microsomes, read-out: KI

SMILES	Ki (CYP3A4/5; human, human liver microsomes, pH 7.4, time-dependent inactivation of CYP3A4/5, footnote ** not given, read-out: KI (value in parentheses marked **)) [µM]	Ki (CYP3A4/5; [3]) [µM]	inactivation of CYP3A4/5 (conclusion in words) (CYP3A4/5)	antitumor effect in Karpas-422 xenograft model (Karpas-422 xenograft)	tolerability [1]	CYP1A % Positive Control (CYP1A; 1 μm) [%]	CYP1A % Positive Control (CYP1A; 10 μm) [%]	CYP2B6 % Positive Control (CYP2B6) [%]	reversible CYP inhibition (conclusion in words) [2]	IC50 (WSU-DLCL2 cells) [µM]
CCN(c1cc(-c2ccc(OCCOC)cc2)cc(C(=O)NCc2c(C)cc(C)[nH]c2=O)c1C)[C@H]1CC[C@H](N(C)C)CC1 [Compound 1, N-((4,6-dimethyl-2-oxo-1,2-dihydropyridin-3-yl)methyl)-5-(((trans)-4-(dimethytamino)-cyclohexyl)(ethyl)-amino)-4′-(2-methoxyethoxy)-4-methyl-[1,1′-biphenyl]-3-carboxamide]	3.3	6.4	time-, concentration-, and NADPII-dependent inactivation of CYP3A4/5	tumor stasis and regression	well tolerated	2.8	3.0	18.0	no significant reversible inhibition	–
CCN(c1cc(C#CCN2CCOCC2)cc(C(=O)NCc2c(C)cc(C)[nH]c2=O)c1C)[C@H]1CC[C@H](N(C)CCOC)CC1 [Compound 2, N-((4,6-dimethyl-2-oxo-1,2-dihydropyridin-3-yl)methyl)-3-(ethyl((trans)-4-((2-methoxyethyl)(methyl)amino)cyclohexyl)amino)-2-methyl-5-(3-morpholinoprop-1-yn-1-yl)benzamide]	–	22.3	time-, concentration-, and NADPII-dependent inactivation of CYP3A4/5	–	–	–	–	–	no significant reversible inhibition	0.385
CCN(c1cc(C#CC2CCN(C)CC2)cc(C(=O)NCc2c(C)cc(C)[nH]c2=O)c1C)C1CCOCC1 [Compound 105, N-((4,6-Dimethyl-2-oxo-1,2-dihydropyridin-3-yl)methyl)-3-(ethyl(tetrahydro-2H-pyran-4-yl)amino)-2-methyl-5-((1-methylpiperidin-4-yl)ethynyl)benzamide]	–	10.2	time-, concentration-, and NADPII-dependent inactivation of CYP3A4/5	–	–	3.0	4.4	–	potentially significant inhibition of CYP2D6 and CYP3A4 (midazolam)	–
